The record followed here is patent publication US20100152219A1, “PYRAZOLE DERIVATIVES AS INHIBITORS OF RECEPTOR TYROSINE KINASES” (ASTRAZENECA R&D, priority 2003, published 2010).

A word on the IC50: it is the concentration at which inhibition is half-maximal. A low value points to greater potency in that assay.

This experiment addresses T1, human TrkB kinase (Homo sapiens, UniProt Q16620).
T1 construct: The intracellular domain of a HIS-tagged human TrkB kinase; His tag; made in house; host or cells: Sf9 insect cells
The experiment can be described thus: TrkB Assay Format (HTRF kinase assay). In kind it is biochemical. Particulars: Trk inhibitory activity in the in-vitro TrkB HTRF assay. The protocol: TrkB kinase activity is being measured against its ability to phosphorylate synthetic tyrosine residues within a generic polypeptide substrate using homogenous time-resolved fluorescence (HTRF) technology. The intracellular domain of a HIS-tagged human TrkB kinase was expressed in SF9 cells and purified using standard nickel column chromatography. After the kinase is incubated with a biotinylated substrate and adenosine triphosphate (ATP) for 50 minutes at room temperature, the kinase reaction is stopped by the addition of 60 mM ethylenediaminetetraacetic acid (EDTA). The reaction is performed in 384 well microtitre plates and reaction products are detected with the addition of strepavidin-linked and phosphotyrosine-specific antibodies using the Tecan Ultra Evolution Microplate Fluometer after an additional 3-hour incubation at room temperature.
On the technique in general: Time-resolved FRET reads energy transfer from a long-lived donor to a nearby acceptor.

Structures are written as SMILES.

T1 sequence (Q16620 455-822 limits assumed): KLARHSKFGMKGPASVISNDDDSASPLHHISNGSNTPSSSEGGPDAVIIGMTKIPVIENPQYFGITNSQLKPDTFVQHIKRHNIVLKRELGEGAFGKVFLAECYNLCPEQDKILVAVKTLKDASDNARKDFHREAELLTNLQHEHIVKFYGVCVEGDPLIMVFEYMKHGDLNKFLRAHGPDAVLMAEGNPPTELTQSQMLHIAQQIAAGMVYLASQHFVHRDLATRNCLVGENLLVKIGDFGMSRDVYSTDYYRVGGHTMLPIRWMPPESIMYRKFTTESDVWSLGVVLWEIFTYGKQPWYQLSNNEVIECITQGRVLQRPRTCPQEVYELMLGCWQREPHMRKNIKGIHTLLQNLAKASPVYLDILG

The compound `OCC[C@H](Nc1nc(Nc2cc(C3CC3)[nH]n2)c2sccc2n1)c1ccc(F)cc1` [Example 64, (3S)-3-({4-[(5-Cyclopropyl-1H-pyrazol-3-yl)amino]thieno[3,2-d]pyrimidin-2-yl}amino)-3-(4-fluorophenyl)propan-1-ol] showed an IC50 of 59 nM.

`C[C@H](Nc1nccc(Nc2cc(C3CC3)n[nH]2)n1)c1ccc(F)cc1` [Example 42, N^4-(3-Cyclopropyl-1H-pyrazol-5-yl)-N^2-[(1S)-1-(4-fluorophenyl)ethyl]pyrimidine-2,4-diamine] had a half-maximal inhibitory concentration (IC50) of 67 nM. The result for `COc1ccc2nc(N[C@@H](CO)c3ccc(F)cc3)nc(Nc3cc(C4CC4)[nH]n3)c2c1` [Example 80, (2R)-2-({4-[(5-Cyclopropyl-1H-pyrazol-3-yl)amino]-6-methoxyquinazolin-2-yl}amino)-2-(4-fluorophenyl)ethanol] reads 87 nM.
